In paper PMC3637861 (Journal of muscle research and cell motility, 2013):

Biological target: Recombinant chicken cardiac troponin C (cTnC) (Gallus gallus, UniProt P09860)
Experiment: intrinsic tyrosine fluorescence quenching titration, hyperbolic plus linear fit
Type: binding

O=C(O[C@@H]1Cc2c(O)cc(O)cc2O[C@@H]1c1cc(O)c(O)c(O)c1)c1cc(O)c(O)c(O)c1 [EGCg]
Kd: 65 µM
